Patent publication US20100104980A1, “LITHOGRAPHIC PRINTING PLATE PRECURSOR” (Agfa Graphics NV, priority 2007, published 2010)

Columns and labels:
[1] = Solubility in methylethylketone (MEK) measured at 20° C.; assay type: physicochemical
Method: The symmetric sensitizers SS-01 to SS-06 are given in Table 1 together with their solubility in methylethylketone (S (MEK)) measured at 20° C.

[2] = Solubility in 1-methoxy-2-propanol (MOP) at 80° C., Lasentec FBRM technology; assay type: physicochemical; details: solubility in 1-methoxy-2-propanol at 80° C.; from curve fitting of experimental data
Method: (§1) In the present application the MetaStable Zone of solutions of a sensitizer and/or a mixture of sensitizers were measured with Lasentec® FBRM® technology, from Mettler Toledo. In this experimental set up, a Lasentec® Probe is used in an automated Labmax® 2 litre reactor, both from Mettler Toledo. In a typical investigation, the solution is cooled at a controlled rate (° C./min.) At a certain temperature, the probe detects nucleation and holds the solution at that temperature as crystallization proceeds. After completion of the crystallization, the solution is subjected to a controlled heating (° C./min) until the probe detects the temperature at which dissolution of the crystals is nearly completed. Again, the solution is kept at that temperature until all crystals are dissolved. Such cooling and heating cycli are performed for different concentrations of the solution. All actions, i.e. performing the cooling and heating cycli, dilution of the solution, storage and analysis of the data are performed automatically by the experimental set up used.
(§2) All investigations were performed on a sensitizer solution in 1-methoxy-2-propanol, since this typical coating solvent has a high boiling point (120° C.) and, as described above, will probably determine the crystallization behaviour at the end of the drying step of the photopolymerizable coating.
(§3) The obtained data for each investigated solution of a sensitizer or a mixture of sensitizers may be represented as in FIG. 1. In FIG. 1, curve S is the solubility curve and curve N the nucleation curve. These curves border three regions characterizing the solution as a function of concentration and temperature: the UnSaturated Zone (USZ), a stable zone wherein the solution is unsaturated (sensitizer is completely dissolved); an Unstable Zone (UZ), wherein crystallization occurs; and a MetaStable Zone (MSZ) wherein the solution is supersaturated but wherein no crystallization occurs.
(§4) The suspension was stirred at 350 rpm and heated until complete dissolution of all sensitizers. All following actions were automatically performed by the experimental set up used. The experimental set up constituted a Labmax® 2 liter automated lab reactor equipped with Lasentec® Probe and the Lasentec® D600 hardware, all distributed by Mettler Toledo. The Lasentec® FBRM® technology enables the detection of nucleation and dissolution temperatures of a solution. FBRM® stands for Focused Beam Reflectance Measurement. The Lasentec® probe measures the number and the average diameter of the particles in the suspension (the laser of the Lasentec® probe continuously scans, with a linear scan speed of 2 m/s, a region of the suspension; the laser light is reflected by the particles residing in the scanned region).
The 40 percent by weight solution was cooled at 0.2° C./minute. Upon detection of nucleation, i.e. when the Lasentec® FBRM® technology detects more than 800 particles with an average diameter of 1 to 20 μm, the so called ‘fines’ region, the mixture was kept at the attained temperature during 0.5 hour as crystallization proceeds. Upon completion of the crystallization, the mixture was heated at 0.2° C./minute. Upon detection of solubilization, i.e. when the Lasentec® FBRM® technology detects less than 30 particles with an average particle diameter of 20 to 50 μm, the so called ‘coarses’ region, the temperature was kept at the attained temperature during 0.5 hour until completion of the solubilization. […]

[3] = MetaStable Zone Width (MSZW) in 1-methoxy-2-propanol at 80° C., Lasentec FBRM technology; assay type: physicochemical; details: cooling and heating rate 0.2° C./min, from curve fitting
Method: as §1, §2, §3
The MetaStable Zone Width (MSZW), expressed in ° C., at a given temperature, is the width of the Metastable Zone (MSZ) starting at the curve S at that given temperature. Since the MSZW is dependent on the cooling and heating rates, these rates were identical for all solutions investigated, i.e. 0.2° C./min. If the cooling rate would be indefinitely slow, the nucleation curve would practically coincide with the solubility curve and no MetaStable Zone would be detected.
as §4
The 40 percent by weight solution was cooled at 0.2° C./minute. […]

SMILES | S (MEK) [1] [wt %] | S (MOP) 80° C. [2] [wt. %] | MSZW 80° C. [3] [°C] | melting point [°C]
CCCOc1c(OC)cc(/C=C/c2ccc(/C=C/c3cc(OC)c(OCCC)c(OC)c3)cc2)cc1OC [SS-02] | 4.75 | 10.78 | 4.5 | 
CCC(C)Oc1c(OC)cc(/C=C/c2ccc(/C=C/c3cc(OC)c(OC4CCCC4)c(OC)c3)cc2)cc1OC (stereo not drawn) [AS-04] |  |  |  | 153
CCC(C)Oc1c(OC)cc(/C=C/c2ccc(/C=C/c3cc(OC)c(OC(CC)CC)c(OC)c3)cc2)cc1OC (stereo not drawn) [AS-02] |  |  |  | 155
COc1cc(/C=C/c2ccc(/C=C/c3cc(OC)c(OC)c(OC)c3)cc2)cc(OC)c1OC [SS-01] | 0.89 | 4.66 | 4.5 | 
CCC(C)Oc1c(OC)cc(/C=C/c2ccc(/C=C/c3cc(OC)c(OC4CCCCC4)c(OC)c3)cc2)cc1OC (stereo not drawn) [AS-03] |  |  |  | 165
CCCCC(CC)COc1c(OC)cc(/C=C/c2ccc(/C=C/c3cc(OC)c(OC(C)CC)c(OC)c3)cc2)cc1OC (stereo not drawn) [AS-01] |  |  |  | 81
CCC(C)Oc1c(OC)cc(/C=C/c2ccc(/C=C/c3cc(OC)c(OCCO)c(OC)c3)cc2)cc1OC (stereo not drawn) [AS-05] |  |  |  | 137

Now from value to compound:

S (MEK) [1] [wt %] | S (MOP) 80° C. [2] [wt. %] | MSZW 80° C. [3] [°C] | melting point [°C] | SMILES
9.64 | 6.14 | 3.6 |  | CCC(CC)Oc1c(OC)cc(/C=C/c2ccc(/C=C/c3cc(OC)c(OC(CC)CC)c(OC)c3)cc2)cc1OC [SS-05]
8.71 | 22.76 | 1.6 |  | CCC(C)Oc1c(OC)cc(/C=C/c2ccc(/C=C/c3cc(OC)c(OC(C)CC)c(OC)c3)cc2)cc1OC (stereo not drawn) [SS-04]
23.21 |  |  |  | CCCCC(CC)COc1c(OC)cc(/C=C/c2ccc(/C=C/c3cc(OC)c(OCC(CC)CCCC)c(OC)c3)cc2)cc1OC (stereo not drawn) [SS-06]
0.45 | 7.31 | 1.7 |  | COc1cc(/C=C/c2ccc(/C=C/c3cc(OC)c(OC(C)C)c(OC)c3)cc2)cc(OC)c1OC(C)C [SS-03]
